Reference: patent US20130101580A1, “COMPOSITIONS AND METHODS FOR PROLONGING LIFESPAN” (priority 2011, published 2013)
Marks after values point to notes of the source that are not given here.

Tests used:
[1] = test system: Drosophila melanogaster (Oregon); assay: Life span of wild type Oregon-R flies with aMT or 5MT added to the nutrition medium; type: in vivo; conditions: for Life span (days), Maximum / Life span (days), Mean / Life span (days), Median: aMT (18.3 mM) and 5MT (18.3 mM) in medium; for Increase of maximum life span / Increase of mean survival time: vs control
Method: Wild type Oregon-R flies were maintained at 23° C. on a standard Drosophila medium consisting of sugar, yeast, agar and semolina. Two concentrations of aMT (alpha-dl-methyl tryptophan) (0.46 mM or 18.3 mM) or 5MT (5-methyl-dl-tryptophan) (2.4 mM and 18.mM) (Sigma Aldrich Chemical Co, USA) were added to nutrition medium of experimental groups. To examine lifespan, 1-day old adult flies were collected and then regularly transferred to fresh medium every 3-4 days. The number of dead flies was recorded at the time of transfer.
The data were analyzed using two ways ANOVA and Log rank test.

[2] = test system: Drosophila melanogaster (Oregon); assay: as above; type: in vivo

SMILES	Life span (days), Maximum ([1]; FEMALE flies)	Life span (days), Mean ([1]; FEMALE flies)	Life span (days), Median ([1]; FEMALE flies)	Life span (days), Maximum ([1]; MALE flies)	Life span (days), Mean ([1]; MALE flies)	Life span (days), Median ([1]; MALE flies)	Increase of maximum life span ([1]; female flies, 5MT 34.5 mM, p<0.0001, two way ANOVA)	Female flies surviving longer than 53 days (maximum life span of female control group) ([1]; female flies, high concentrations of 5MT (34.5 mM), 11 out of 58)	Effect on life span of Drosophila ([2]; 5MT 2.3 mM in medium)	Increase of mean survival time ([2]; female flies, 5MT 34.5 mM, vs control, p<0.0001, two way ANOVA)	Longest survival of treated female flies ([2]; female flies, high concentrations of 5MT (34.5 mM))	Effect on life span of Drosophila ([1]; aMT 0.46 mM in medium)	Increase of maximum life span ([1]; female flies, aMT 18.3 mM, p<0.0001)	Female flies surviving longer than 53 days (maximum life span of female control group) ([1]; female flies, high concentration of aMT (18.3 mM), 13 out of 51)	Increase of mean survival time ([1]; females, aMT 18.3 mM, p<0.0001, two way ANOVA)	Increase of maximum life span ([1]; male flies, aMT 18.3 mM, p<0.0001)	Effect on life span of male flies ([1]; male flies, high concentration (18.3 mM))	Male flies surviving longer than 40 days (maximum life span of 72 out of 73 control flies) ([1]; male flies, high concentration of aMT (18.3 mM), 29 out of 40)	Increase of mean survival time ([1]; males, aMT 18.3 mM, p<0.0001, two way ANOVA)
Cc1ccc2[nH]cc(CC(N)C(=O)O)c2c1 (racemic) [5MT, 5-methyl-dl-tryptophan]	65* days	48.5* days	50 days	40 days	26.7 days	30 days	23%	19%	did not affect	21%	up to 65 days								
C[C@](N)(Cc1c[nH]c2ccccc12)C(=O)O (racemic) [aMT, alpha-dl-methyl tryptophan]		51.7* days	50 days		40.2* days	43* days						did not affect	23%	25%	27%	21%	did not affect	60%	42%
